# Test results: patent US20230225972A1 (priority 2020, published 2023)
# System: influenza
# Parameters: species or system Mice
# Details: mouse, in vivo
smiles,measurement,value
Nc1nc2c(ncn2[C@@H]2O[C@@H]3COP(=O)(O)O[C@H]4[C@@H](O)[C@H](n5cnc6c(=O)[nH]c(N)nc65)O[C@@H]4COP(=O)(O)O[C@H]3[C@H]2O)c(=O)[nH]1 [c-di-GMP],viral replication in the nose,facilitate reduction of viral replication in the nose
